In patent publication US6660320B1, “Process for producing an antioxidant extract from the bearberry plant” (University of Saskatchewan Technologies Inc., priority 1999, dated 2003):

Legend:
[1] = β-carotene-linoleate model system; settings: 0.5 mg of BHA per 5 mL emulsion, 50° C., FIG. 1
Description: The antioxidant activity of the bearberry extract was evaluated using a β-carotene-linoleate model system (Miller, 1971). Briefly, 2-mg quantities of β-carotene were dissolved in 10 mL of chloroform. One millilitre of this solution was then pipetted into a small round-bottom flask. After removing the chloroform using a rotary evaporator, 20 mg of purified linoleic acid, 200 mg of Tween 40 emulsifier and 50 mL of aerated, distilled water were added to the flask with vigorous stirring. Aliquots (5 mL) of prepared emulsion were transferred to a series of tubes containing 2 mg of extract or 0.5 mg of BHA. As soon as the emulsion was added to each tube, the zero time absorbance was read at 470 nm (nanometers) against a reagent blank using a spectrophotometer. Subsequent absorbance readings were recorded at 15-minute intervals by keeping the samples in water bath at 50° C. until the color of β-carotene disappeared.

[2] = meat model system, TBARS of cooked comminuted pork
Description: The efficacy of the bearberry extract was tested in a meat model system. Pork cushions were obtained from Mitchell's Gourmet Foods, Ltd. (Saskatoon, SK). The meat was ground two times through a ⅛-inch plate using a Biro grinder/food mixer (AMFG Model 24, Marblehead, Ohio). Pork from the meat block was transferred to Mason jars and mixed with 20% (w/w) distilled water and various additives. Meat systems were thermal processed in an 85° C. thermostated water bath with occasional stirring by a glass rod until an internal temperature of 75±1° C. was reached. The meat systems were cooled to room temperature, homogenized in an Osterizer (Sunbeam Corporation [Canada] Ltd., Toronto, ON) blender for 30 seconds, transferred to Whirl Pak bags (Systems Plus, New Hamburg, ON) and refrigerated at 4° C. until used.
(§1) Thiobarbituric reactive substances (TBARS) were determined for the bearberry extract (Witte et al.,1970, and Bedinghaus and Ockerman, 1995). Briefly, a 5-g portion of each sample was transferred to a stomacher bag in which 50 mL of a 20% (w/v) TCA and 1.6% (v/v) phosphoric acid solution were added. Each sample was stomached (Stomacher Lab-Blender 400, Model BA6021, A. J. Seward, Co., Bury St. Edmunds, UK) for 2 minutes and then 50 mL of cold distilled water were added. After blending for an additional minute, each sample was filtered through Whatman #1 filter paper into a 100-mL volumetric flask. Each flask was filled to mark with distilled water/TCA solution (1:1 v/v) and its contents were mixed well. Five-mL aliquots from each sample were pipetted to polypropylene conical centrifuge tubes (VWR Canlab, Mississauga, ON) to which an equivalent volume of a 0.02 M aqueous TBA reagent was added. Tubes were capped and heated in a boiling water bath for 35 minutes, and then cooled in an ice bath. Absorbance measurements of the pink-colored chromogen were made at 532 nm against a reagent blank using a spectrophotometer. A ‘k’ factor of 20.1 was determined from a calibration curve based on addition of known quantities of the malonaldehyde precursor, 1,1,3,3-tetramethoxypropane, to cooked meat samples prior to extraction and an average recovery of 85.5% was found.

[3] = TBA analysis of cooked pork patties; settings: 50 ppm TBHQ; 200 ppm bearberry extract; both formulations, stored at 4° C.
Description: as §1, with “Tubes were capped and heated in a boiling water bath for 35 minutes, and then cooled in an ice bath.” left out, “found. […]” for “found.”
TBA reactive substances were determined in cooked pork patties over the course of the study as has been previously described.

SMILES	inhibition of β-carotene consumption throughout the incubation [1]	TBARS Values ([2]; Table 3, 50 ppm, 1 day of storage at 4° C.)	TBARS Values ([2]; Table 3, 50 ppm, 3 days of storage at 4° C.)	TBARS Values ([2]; Table 3, 50 ppm, 5 days of storage at 4° C.)	TBARS Values ([2]; Table 3, 50 ppm, 7 days of storage at 4° C.)	TBARS Values ([2]; Table 3, 50 ppm, 14 days of storage at 4° C.)	TBARS Values ([2]; Table 4, 50 ppm, 1 day of storage at 4° C.)	TBARS Values ([2]; Table 4, 50 ppm, 3 days of storage at 4° C.)	TBARS Values ([2]; Table 4, 50 ppm, 5 days of storage at 4° C.)	TBARS Values ([2]; Table 4, 50 ppm, 7 days of storage at 4° C.)	TBARS Values ([2]; Table 4, 50 ppm, 14 days of storage at 4° C.)	TBA results, lipid oxidation during storage [3]
COc1ccc(O)c(C(C)(C)C)c1 [BHA, butylated hydroxyanisole]	completely inhibited β-carotene consumption											
CC(C)(C)c1cc(O)ccc1O [TBHQ, tert-butylhydroquinone]		0.10 mg malonaldehyde eq./kg sample	0.10 mg malonaldehyde eq./kg sample	0.10 mg malonaldehyde eq./kg sample	0.20 mg malonaldehyde eq./kg sample	0.34 mg malonaldehyde eq./kg sample	0.10 mg malonaldehyde eq./kg sample	0.10 mg malonaldehyde eq./kg sample	0.10 mg malonaldehyde eq./kg sample	0.23 mg malonaldehyde eq./kg sample	0.45 mg malonaldehyde eq./kg sample	retarded lipid oxidation during storage
